Data: ChEMBL document CHEMBL1201862, “PubChem BioAssay data set” (2004)
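96-well plates; 48 h exposure; 5 concentrations. Endpoints by linear interpolation between flanking doses. Not reached: highest tested concentration assigned. GI50: concentration for 50% inhibition of growth.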 Calls of active or inactive are those of the source. No stated cut-off is given here; in the data, active = GI50 up to about 1.1 µM and inactive = higher.

What was measured:
Assay in all cases: growth of human tumour cells (NCI), 48 h
A549 = system: A549
HCT-15 = system: HCT-15
U-251 = system: U-251
NCI-H522 = system: NCI-H522
OVCAR-8 = system: OVCAR-8
MOLT-4 = system: MOLT-4
A498 = system: A498
M14 = system: M14
HCC 2998 = system: HCC 2998
ACHN = system: ACHN
OVCAR-4 = system: OVCAR-4
Malme-3M = system: Malme-3M
UACC-257 = system: UACC-257
COLO 205 = system: COLO 205
SNB-19 = system: SNB-19
DU-145 = system: DU-145
BT-549 = system: BT-549
HL-60 = system: HL-60
SNB-75 = system: SNB-75
SR = system: SR

Structure (SMILES)	GI50 (A549)	GI50 (HCT-15) [µM]	GI50 (U-251)	GI50 (NCI-H522)	GI50 (OVCAR-8)	GI50 (MOLT-4)	GI50 (A498)	GI50 (M14)	GI50 (HCC 2998)	GI50 (ACHN)	GI50 (OVCAR-4)	GI50 (Malme-3M)	GI50 (UACC-257)	GI50 (COLO 205)	GI50 (SNB-19)	GI50 (DU-145)	GI50 (BT-549)	GI50 (HL-60)	GI50 (SNB-75)	GI50 (SR)
O=C(O)CC(Cc1ccccc1)C(=O)O (configuration not stated)	> 100 µM (inactive)	> 100	> 100 µM (inactive)	> 100 µM (inactive)	> 100 µM (inactive)	> 100 µM (inactive)	> 100 µM (inactive)	> 100 µM (inactive)	> 100 µM (inactive)	> 100 µM (inactive)	> 100 µM (inactive)	> 100 µM (inactive)	> 100 µM (inactive)	> 100 µM (inactive)	> 100 µM (inactive)	> 100 µM (inactive)	> 100 µM (inactive)			
CCOP(=O)(/C=C\n1cnc2c(=O)n(C(C)=O)c(N)nc21)OCC	> 100 µM (inactive)	> 100	> 100 µM (inactive)		> 100 µM (inactive)	> 100 µM (inactive)	> 100 µM (inactive)	> 100 µM (inactive)		> 100 µM (inactive)	> 100 µM (inactive)		> 100 µM (inactive)	> 100 µM (inactive)	> 100 µM (inactive)	> 100 µM (inactive)	> 100 µM (inactive)	> 100 µM (inactive)	> 100 µM (inactive)	
NN/C(=N\S(=O)(=O)c1cc2ccccc2s1)Nc1ccc(Cl)cc1	19.4 µM (inactive)	30.5	17.7 µM (inactive)		22.4 µM (inactive)	18.9 µM (inactive)	19.9 µM (inactive)	20.9 µM (inactive)		23.1 µM (inactive)	17.5 µM (inactive)		18.5 µM (inactive)	17.3 µM (inactive)	27 µM (inactive)	17.8 µM (inactive)	18.9 µM (inactive)	22.4 µM (inactive)	20.6 µM (inactive)	40.1 µM (inactive)
CC1=CCCC(C)(O)C2CC(CCC3(C)OC3CC1)C(C)C(=O)O2 (configuration not stated)	> 100 µM (inactive)	> 100	> 100 µM (inactive)	> 100 µM (inactive)	> 100 µM (inactive)	43.7 µM (inactive)	> 100 µM (inactive)	> 100 µM (inactive)	> 100 µM (inactive)	> 100 µM (inactive)	> 100 µM (inactive)	> 100 µM (inactive)	> 100 µM (inactive)	> 100 µM (inactive)	> 100 µM (inactive)	> 100 µM (inactive)	> 100 µM (inactive)	> 100 µM (inactive)	> 100 µM (inactive)	
CCCCCN1C(=O)C(Cc2ccccc2)N=C(c2ccc(O)cc2)c2cc(Cl)ccc21 (configuration not stated)	13.6 µM (inactive)	7.67	9.35 µM (inactive)	2.55 µM (inactive)	8.87 µM (inactive)	4.09 µM (inactive)	> 33.7 µM (inactive)	11.2 µM (inactive)		13 µM (inactive)	7.73 µM (inactive)	7.57 µM (inactive)	7.66 µM (inactive)	2.96 µM (inactive)	14.5 µM (inactive)	15.8 µM (inactive)	17.4 µM (inactive)	2.98 µM (inactive)	4.61 µM (inactive)	2.97 µM (inactive)
CC(Nc1ccc(Cl)c(Cl)c1)c1ccncc1 (configuration not stated)	10.5 µM (inactive)	40.3	19.9 µM (inactive)	12.5 µM (inactive)	21.8 µM (inactive)	19.5 µM (inactive)	20.1 µM (inactive)	29 µM (inactive)		19.1 µM (inactive)	58.2 µM (inactive)	34.3 µM (inactive)	26.2 µM (inactive)	16.5 µM (inactive)	22.5 µM (inactive)	30.2 µM (inactive)	26.1 µM (inactive)		23 µM (inactive)	
C/C(=N/NC(N)=S)c1ccc[nH]1	> 100 µM (inactive)	> 100	> 100 µM (inactive)	> 100 µM (inactive)	> 100 µM (inactive)	> 100 µM (inactive)	> 100 µM (inactive)	> 100 µM (inactive)	> 100 µM (inactive)	> 100 µM (inactive)	78.9 µM (inactive)	> 100 µM (inactive)	> 100 µM (inactive)	> 100 µM (inactive)	> 100 µM (inactive)	> 100 µM (inactive)	> 100 µM (inactive)	> 100 µM (inactive)	> 100 µM (inactive)	
CCOC(=O)c1nc2ccccc2nc1Nc1ccc(OC)c(OC)c1	> 100 µM (inactive)	> 100	75.7 µM (inactive)	> 100 µM (inactive)		> 100 µM (inactive)		> 100 µM (inactive)	> 100 µM (inactive)	> 100 µM (inactive)	> 100 µM (inactive)	> 100 µM (inactive)		> 100 µM (inactive)	> 100 µM (inactive)	> 100 µM (inactive)	> 100 µM (inactive)	> 100 µM (inactive)	21.9 µM (inactive)	> 100 µM (inactive)
O=C(/C=C/c1ccc(O)cc1)c1cc(O)cc(O)c1	16.5 µM (inactive)	5.4	14.5 µM (inactive)	3.95 µM (inactive)	13.4 µM (inactive)	16.3 µM (inactive)	14.9 µM (inactive)	15.7 µM (inactive)		6.79 µM (inactive)	20.6 µM (inactive)	20.4 µM (inactive)	16.3 µM (inactive)	18 µM (inactive)	16.7 µM (inactive)	12.7 µM (inactive)	14.3 µM (inactive)	1.92 µM (inactive)	17.6 µM (inactive)	
COc1ccc(Nc2nn3c(=O)c4c(C)c(C)sc4nc3s2)cc1	18.6 µM (inactive)	44.7	37.9 µM (inactive)	25.5 µM (inactive)	49.1 µM (inactive)	43.2 µM (inactive)		61.1 µM (inactive)		41.4 µM (inactive)	24.4 µM (inactive)	32.2 µM (inactive)	29.9 µM (inactive)	> 100 µM (inactive)	47.6 µM (inactive)	18.1 µM (inactive)	> 100 µM (inactive)	97.5 µM (inactive)	22.7 µM (inactive)	9.84 µM (inactive)
CC1(C)Cc2c(sc3[nH]c(=S)[nH]c(=S)c23)CS1	59.2 µM (inactive)	33.3	41.9 µM (inactive)		90.2 µM (inactive)	43 µM (inactive)	33 µM (inactive)	30.2 µM (inactive)			18.2 µM (inactive)	20.6 µM (inactive)	18.2 µM (inactive)	32.1 µM (inactive)	54.8 µM (inactive)	> 100 µM (inactive)	46.3 µM (inactive)	33.2 µM (inactive)		48.6 µM (inactive)
O=C(CSCC(=O)N/N=C/c1ccc2c(c1)OCO2)N/N=C/c1ccc2c(c1)OCO2	91.4 µM (inactive)	> 100	> 100 µM (inactive)	64.1 µM (inactive)	49 µM (inactive)	21.5 µM (inactive)	> 100 µM (inactive)	58.9 µM (inactive)	> 100 µM (inactive)	> 100 µM (inactive)	> 100 µM (inactive)	49.2 µM (inactive)	30.3 µM (inactive)		> 100 µM (inactive)	> 100 µM (inactive)	> 100 µM (inactive)	58.9 µM (inactive)	> 100 µM (inactive)	
O=S(=O)(O)C(Cc1nc2ccccc2[nH]1)S(=O)(=O)OCCC1S(=O)(=O)OCCOS1(=O)=O (configuration not stated)	> 100 µM (inactive)	> 100	> 100 µM (inactive)	> 100 µM (inactive)	> 100 µM (inactive)	> 100 µM (inactive)	> 100 µM (inactive)	> 100 µM (inactive)	> 100 µM (inactive)	> 100 µM (inactive)	> 100 µM (inactive)	> 100 µM (inactive)	> 100 µM (inactive)	> 100 µM (inactive)	> 100 µM (inactive)	> 100 µM (inactive)	> 100 µM (inactive)	> 100 µM (inactive)	> 100 µM (inactive)	
COc1cccc(/C=C2\CCCc3ccccc3C2=O)c1	23 µM (inactive)	10.9	15 µM (inactive)	15 µM (inactive)	19.2 µM (inactive)	19.4 µM (inactive)		13 µM (inactive)		26.4 µM (inactive)	13.5 µM (inactive)	19.6 µM (inactive)	15.2 µM (inactive)	17.8 µM (inactive)	11.7 µM (inactive)	19.1 µM (inactive)	16.2 µM (inactive)	13.8 µM (inactive)	23.4 µM (inactive)	13 µM (inactive)
Cc1nnc2sc(NN)nn12	> 100 µM (inactive)	> 100	> 100 µM (inactive)	> 100 µM (inactive)	> 100 µM (inactive)	17.5 µM (inactive)	> 100 µM (inactive)	> 100 µM (inactive)		> 100 µM (inactive)	> 100 µM (inactive)	> 100 µM (inactive)	> 100 µM (inactive)	> 100 µM (inactive)	> 100 µM (inactive)	> 100 µM (inactive)	> 100 µM (inactive)		> 100 µM (inactive)	
C=C(C)[C@@H]1CC[C@@]2(C)[C@H]1[C@H]1CCC3[C@@]4(C)CC[C@H](O)C(C)(C)[C@@H]4CC[C@@]3(C)[C@]1(C)C[C@@H]2O (some centres not stated) [CALENDULADIOL]	11.1 µM (inactive)	18.5	25.3 µM (inactive)	17.6 µM (inactive)	41.3 µM (inactive)	11.2 µM (inactive)	> 100 µM (inactive)	> 100 µM (inactive)		21.9 µM (inactive)		33 µM (inactive)	55.2 µM (inactive)		54.7 µM (inactive)	74.8 µM (inactive)	> 100 µM (inactive)	19.5 µM (inactive)	27.3 µM (inactive)	28.4 µM (inactive)
